Data published in patent US20260069693A1, “UROLITHINS AND T-CELL MEDIATED IMMUNE RESPONSE” (priority 2022, published 2026).

Assays:
CEA-CAR T cells = test: UA applied to previously frozen CEA-CAR T cells; type: cell-based, human; conditions: previously frozen CEA-specific CAR-T cells, UA for three days
OT-1 T cells = test: adoptive transfer of UA-treated OT-1 T cells, engraftment; type: in vivo, Rag1^−/− mice; conditions: seven days after transfer of T cells stimulated 48 h with UA (25 μM) vs DMSO
Source text: Adoptive cell transfer (ACT) represents the infusion of antigen-specific leukocytes with direct antitumor activity, yet identification, selection and expansion of lymphocyte subsets harboring optimal antitumor qualities remains one of the most crucial challenges (Rosenberg and Restifo, 2015). ACT benefits especially from minimally differentiated cells due to their improved survival and long-term potential to generate unexhausted effector cells (Luca Gattinoni et al; Mo et al., 2021; Roberto et al., 2015). In particular, CD8^+ T cells restricted in a stem-like state have been associated with enhanced tumor suppressive properties upon adoptive cell transfer (Enrico Lugli et al; Verma et al., 2021). […] The inventors cultured T cells from OT-1 donor mice (FIG. 3A) for 48 hours in the presence of UA or vehicle control, followed by adoptive transfer into immunodeficient Rag1^−/− mice. […] Moreover, consistent with an improved memory response, animals receiving UA-pretreated T cells contained less Tim3^HiPD1^Hi terminally exhausted CD8^+ T cells in the TME (FIG. 3I). Thus, UA augments immune-mediated antitumor memory upon adoptive cell transfer.
For adoptive cell transfer transfer, purified splenic T cell from OT1 mice were isolated and activated using aCD3/aCD28 stimulation beads for 48 h. […] Tumor growth was assessed as described above. […]

Splenic murine T cells = test: aCD3/aCD28 stimulation of murine T cells in presence of UA, flow cytometry; type: cell-based
Procedure: Mitochondrial remodelling has been previously associated with alterations in T cell fate (Buck et al., 2016; Yu et al., 2020b). Given the observed dependency of the UA effect on CD8^+ T cells, the inventors wondered whether UA may also directly affect T cell fate commitment. Purified T cells from FVB mice were stimulated with aCD3/aCD28 beads to induce T cell differentiation into effector T cell subsets in the presence or absence of UA for up to 72 hours (FIG. 2A). […] Previously, a rare naïve-like subset of T cells with enhanced stemness capabilities, termed T memory stem cells (TSCM) has been identified (Gattinoni et al., 2009). TSCM are marked by extreme longevity, their ability to self-renew, and potential for immune reconstitution (Gattinoni et al., 2017) which translates into potent anti-tumor immunity. Phenotypically, TSCM represent a subset of minimally differentiated T cells, which share a CD44^loCD62L^hi phenotype with naïve T cells, but are phenotypically distinct by expressing high levels of Sca1 (Gattinoni et al., 2009). […] This was associated with reduced cyclin D1 expression (not shown), in line with previous observations that link TSCM reprogramming to halted proliferation (Gattinoni et al., 2009; Verma et al., 2021).
Splenic murine T cells were isolated from mice aged 6-20 weeks by negative selection with EasySep mouse T cell isolation kit (Stem cell) according to the manufacturer's instructions. To monitor T cell proliferation, purified T cells were loaded with CellTrace Violet (C34557 ThermoFisher Scientific). T cell activation was initiated using αCD3/CD28 activation beads (11456D; ThermoFisher Scientific) at a ratio of 25 μl dynabeads per 0.5×10^6 T-cells. Cells were activated with 25-50 μM Urolithin A (Tocris) or DMSO in T cell activation Medium (RPMI (ThermoFisher Scientific) 10% FBS (South America origin), 10 mM Hepes (Sigma), 1× Non-Essential Amino Acid, 1 mM Sodium Pyruvate, 50 μM B-Mercaptoethanol, 100 U/ml penicillin, 100 μg/ml streptomycin and 2 mM Glutamax (ThermoFisher Scientific) for the indicated durations. In selected experiments, cells were stimulated in the presence of inhibitors, namely TCF1i (ICG-001; SelleckChem; 10 μM) and PGC-1αi (SR-18292, Sigma-Aldrich; 10 μm,). For subsequent analysis, activating beads were magnetically removed prior antibody staining. For human T cells, peripheral blood mononuclear cells were purified with a Ficoll-Paque (GE healthcare) gradient. T cells were enriched with EasySep Human T Cell Isolation Kit (StemCell) and activated with dynabead Human T-Activator CD3/CD28 for T Cell Expansion and Activation Kit (11131D; ThermoFisher Scientific), similar to murine T cell stimulation. […]
For flow cytometric analysis of mitochondria and lysosomes 500 μl of Mitotracker Red (200 nM; ThermoFisher) or Lysotracker Red DND-99 (75 nM; ThermoFisher) were applied followed by surface staining. To study changes in mitochondrial membrane potential, Mitoprobe TMRM kit (ThermoFisher) was used according to the manufacturer's instructions. Cell proliferation was assessed by CellTrace Violet (Invitrogen, C34557) at a concentration of 5 μM according to manufacturer's instructions. For human samples, cells were stained as described above with Fixable Viability Dye-eF780, αCD95-BV421 (DX2; 562616), αCD62L-PE (DREG-56; 555544), αCCR7-AF700 (150503; 561143), αCD45RO-APC (UCHL; 559865), αCD45RA-FITC (HI100; 555488), αCD8-PE-CF594 (RPA-T8; 562282) and αCD4-BV786 (OKT4; 566806) from BD.

[1] = system: Th1/Th17 cell infiltration; conditions: model of EAE; cited from earlier work
[2] = 48 hours in presence of UA, prior to ACT
[3] = CD62L+CD44-CD8+ T cells, 48 h, UA 25 μM

## O=c1oc2cc(O)ccc2c2ccc(O)cc12 [UA, Urolithin A]
CEA-CAR T cells
  CAR TSCM formation: strongly enhanced
OT-1 T cells
  number of engrafted (splenic) CD8+ T cells: significantly higher
Splenic murine T cells
  TSCM formation, dependence on T cell activation: only formed in activated T cells
  cyclin D1 expression: reduced
Splenic murine T cells; 6 h, UA 50 μM
  lysosome formation in CD8+ T cells: enhanced
Splenic murine T cells; 24 h
  loss of mitochondrial content in T cell subsets (TSCM, TCM and TEFF): detected in all T cell subsets analyzed
Splenic murine T cells; 24 h, 48 h and 72 h after aCD3/aCD28 stimulation
  number of CD44-CD62L+Sca1hi TSCM: significantly increased
Splenic murine T cells; [2]
  CD95 expression of CD8+ T cells from OT-1 donors: enhanced
  TSCM phenotype of CD8+ T cells from OT-1 donors: displayed a TSCM phenotype
Splenic murine T cells; CD4+ cells
  TSCM formation in CD4+ cells: did not promote enhanced TSCM formation
Splenic murine T cells; CD4+ cells, later timepoints
  frequency of TEM cells in CD4+ cells: enhanced frequency
  naïve-like CD4+ cells: less
Splenic murine T cells; [3]
  CD95 expression of TSCM: increased
  mitochondrial membrane potential of TSCM (TMRM): reduced
Splenic murine T cells; CellTrace Violet
  CD8+ T cell division: restricted
Splenic murine T cells; T cells from FVB mice, aCD3/aCD28 beads, 48 h, UA vs DMSO
  differentiation into effector T cells (Granzyme B, IFNg expression): blocked
Splenic murine T cells; aCD3/aCD28, up to 72 hours
  central memory cells (TCM): reduction
  frequency of effector memory cells (TEM): remained unaltered
  naïve CD44loCD62Lhi T cells: significant increase
Splenic murine T cells; after 24 hours
  mitochondrial content (MitoTracker Red) in CD8+ T cells: loss of mitochondrial content in a dose-dependent manner
Splenic murine T cells; in vitro
  T cell death in vitro: dose-dependent T cell death
Splenic murine T cells; prolonged UA administration in vitro, 48 h, 50 μM
  PGC-1 expression in CD8+ T cells: marked upregulation
Splenic murine T cells; within six hours, UA 50 μM
  mitochondrial membrane potential in CD8+ T cells: reduction
[1]
  Th1/Th17 cell infiltration: blocking
